Data reported in PMC10574351, “First-Row Transition Metal Complexes Incorporating the 2-(2′-pyridyl)quinoxaline Ligand (pqx), as Potent Inflammatory Mediators: Cytotoxic Properties and Biological Activities against the Platelet-Activating Factor (PAF) and Thrombin” (Molecules, 2023).

Assays:
[1] = test system: lyso-PAF:acetyl-CoA acetyltransferase (lyso-PAF-AT); experiment: Lyso PAF-AT activity assay on leukocyte homogenate; type: biochemical; details: rabbit leukocyte homogenate; Figure 9
Procedure: The experiment on the inhibitory effect of each compound of interest against the washed rabbit platelets (WRPs) aggregation was carried out as per the already described method. The platelets were from male New Zealand white rabbits (about 20), individually housed in stainless steel cages in an air-conditioned room (19 ± 1 °C, 55 ± 5% humidity on a 12/12 h artificial light/dark cycle). Blood samples were drawn from the main ear artery. Microliters of PAF in a final concentration of about 10^–10 M were added to the cuvette of the aggregometer, and the height of the platelet aggregation was monitored. […] Dithiothreitol-insensitive PAF choline phosphotransferase, lyso-PAF:acetyl-CoA acetyltransferase and PAF-acetylhydrolase activity assays were performed on the homogenates of rabbit leukocytes while the activity of lipoprotein-associated phospholipase A2 was assessed on plasma as previously described. […] All results were expressed as mean ± standard deviation (SD). […] Data were analyzed using a statistical software package (SPSS for Windows, 16.0, 2007, SPSS Inc., Chicago, IL, USA) and Microsoft Excel 2007. […]
The extraction, purification, and determination of the produced in each assay PAF was carried out as previously described. […] PAF bands were scrapped off, and extracted and the amount of PAF was determined by the washed rabbit platelet aggregation assay. […]

[2] = test system: human lymphocytes cultures; experiment: Toxicity in healthy cells (human lymphocytes cultures); type: cell-based
[3] = target: T1, Lipoprotein-associated phospholipase A2 (Lp-PLA2) (Oryctolagus cuniculus, UniProt G1SE06); experiment: Plasma PAF-AH (LpPLA2) activity assay; type: biochemical, rabbit; details: in increased concentrations, Figure 10
T1 construct: from tissue; host or cells: rabbit plasma
T1 sequence (G1SE06 22-423): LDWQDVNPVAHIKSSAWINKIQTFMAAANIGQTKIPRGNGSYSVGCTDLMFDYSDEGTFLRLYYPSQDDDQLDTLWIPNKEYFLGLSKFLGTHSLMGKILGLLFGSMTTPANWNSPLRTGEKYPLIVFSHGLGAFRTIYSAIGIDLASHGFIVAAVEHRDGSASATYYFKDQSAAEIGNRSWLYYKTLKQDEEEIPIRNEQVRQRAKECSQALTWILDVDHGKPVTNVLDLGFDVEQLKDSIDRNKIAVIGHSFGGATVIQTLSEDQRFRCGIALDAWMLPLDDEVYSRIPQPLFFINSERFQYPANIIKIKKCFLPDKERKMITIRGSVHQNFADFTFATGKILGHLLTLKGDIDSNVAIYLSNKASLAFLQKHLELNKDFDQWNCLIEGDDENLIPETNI
Procedure: The experiment on the inhibitory effect of each compound of interest against the washed rabbit platelets (WRPs) aggregation was carried out as per the already described method. The platelets were from male New Zealand white rabbits (about 20), individually housed in stainless steel cages in an air-conditioned room (19 ± 1 °C, 55 ± 5% humidity on a 12/12 h artificial light/dark cycle). Blood samples were drawn from the main ear artery. Microliters of PAF in a final concentration of about 10^–10 M were added to the cuvette of the aggregometer, and the height of the platelet aggregation was monitored. […] Dithiothreitol-insensitive PAF choline phosphotransferase, lyso-PAF:acetyl-CoA acetyltransferase and PAF-acetylhydrolase activity assays were performed on the homogenates of rabbit leukocytes while the activity of lipoprotein-associated phospholipase A2 was assessed on plasma as previously described. […] All results were expressed as mean ± standard deviation (SD). […] Data were analyzed using a statistical software package (SPSS for Windows, 16.0, 2007, SPSS Inc., Chicago, IL, USA) and Microsoft Excel 2007.
Plasma PAF-AH was determined in rabbit plasma by the trichloroacetic acid precipitation method using [3H] […] The [3H]-acetate released into the aqueous phase was measured on a liquid scintillation counter. […]

[4] = Stability in DMSO monitored by UV-Vis spectroscopy; type: physicochemical; details: ambient temperature, monitored ~1 to 2 h
Procedure: The UV-Vis spectra of all complexes were recorded in DMSO at ambient temperature, immediately after dissolution, as this is the medium used for the biological assays. The UV-Vis spectrum of 1 will be included in a publication that follows. The relevant spectra of complexes 2, 3, 5 and 6 are shown below in Figure 6 and Figure 7, respectively, while that of complex 7 (concentrated solution) is included in Figure S9.
The UV-Vis absorption spectra of the light-yellow solutions of complexes 2, 3, 5 and 6 were monitored over a period of ~1 to 2 h (not shown) to ensure stability for the relevant biological assays. […] The electronic spectra of all complexes display four rather identical absorption bands in the range of 259–334 nm that can be attributed to π → π* and n → π* or charge-transfer transitions. These bands display medium to weak molar extinction coefficients and are in the expected region for similar complexes. For the cobalt(II) complex 2, the very low intensity and rather broad absorption, centered at ~680 nm can be attributed to d-d transitions. Also for the copper(II) complex 3, the broad absorption band in the range of 660–870 nm, is attributed to d-d transition.

In the case of mer-[Cr(pqx)Cl3(H2O)] [Complex 1], the “inhibition of the specific activity of lyso-PAF-AT” value [1] was “inhibit in a dose-dependent way” and the “toxicity in healthy cells” value [2] was “almost inactive (non-toxic)”.
For [Ni(pqx)Cl2]2 [Complex 7], the “inhibition of the specific activity of lyso-PAF-AT” value [1] was “inhibit in a dose-dependent way” and the “inhibition of the specific activity of Lp-PLA2” value [3] was “disables the enzymatic activity”.
With `CS(C)=O.[Cl][Cu][Cl].c1ccc(-c2cnc3ccccc3n2)nc1` [Complex 3, [Cu(pqx)Cl2(DMSO)]] the “stability of UV-Vis absorption spectra in DMSO” value (“stability” below) [4] was “not modified over time”.
For [Mn(pqx)(H2O)2Cl2]2 [Complex 5], the “stability” value [4] was “not modified over time”.
For [Co(pqx)Cl2(DMF)] [Complex 2], the “stability” value [4] was “not modified over time”.
With [Fe(pqx)Cl2]2 [Complex 6] the “stability” value [4] was “not modified over time”.
For `[Cl][Zn][Cl].c1ccc(-c2cnc3ccccc3n2)nc1` [Complex 4, [Zn(pqx)Cl2]], the “toxicity in healthy cells” value [2] was “almost inactive (non-toxic)”.
